Results reported in patent US10350308B2, “Molecular probes for imaging myelin” (priority 2010, dated 2019).
“Also recorded” adds a separate entry of the source.

How the values were obtained:
myelin [1] = assay: In vivo microPET-MR imaging in focal demyelination rat model
Description: Focal demyelination of adult rat brain. Sprague Dawley female rats (Harlan Laboratory, Indianapolis, Ind.), 12 weeks of age, were used for this study. Animal surgery and care was performed in accordance with the Institutional Animal Care and Use Committee of Case Western Reserve University Animals were anesthetized using a mixture of ketamine hydrochloride (64.2 mg/kg), xylazine hydrochloride (12.9 mg/kg), and acepromazine (12.9 mg/kg) and positioned in a stereotaxic frame (Stoelting). A small incision was made in the scalp, and the corpus callosum was targeted using the following stereotaxic coordinates, relative to bregma: anterior-posterior, 0.0 mm; medial-lateral, 2.0; and dorsal-ventral, 3.4. A small hole was drilled in the skull, and a 26 S gauge needle attached to a 10 μl Hamilton Syringe was lowered into the corpus callosum according to the dorsal-ventral coordinate. A microinjector pump (Stoelting) controlled the infusion of 6 μl of lysolethicin (lysophosphatidyl chorine) or saline at a rate of 0.25 μl/min, after which the needle was left in place for 2 min to prevent liquid reflux out of the brain parenchyma. The incision was then closed using 5-0 Ethicon sutures, and the animals were allowed to recover on a heating pad. The imaging of demyelination of the rats and vehicles were performed 5 d after surgery. The rats were kept alive.
Animals were placed in a Concord R4 microPET scanner (Knoxyille, Tenn.) under anesthesia. After a 10 min transmission scan with a Co-57 source, 7.4 MBq of [11C]DAS were administered to each animal through a tail vein injection, which was immediately followed by dynamic acquisition for up to 90 min. A 2-D filtered back projection (FBP) algorithm was used for image reconstruction with a 256×256 pixel resolution per transverse slice. A total of 63 transverse slices were reconstructed with the field of view covering the head of the animals. Decay correction, attenuation correction and scatter correction were all performed during the image histogram and reconstruction processes.
All MR imaging experiments were performed on a Bruker Biospec 7.0T/30 cm MRI and Spectroscopy scanner (Bruker Biospin, Billerica, Mass.). The animal's head was positioned in a 72-mm volume ID cylindrical transceiver coil. […]
Coregistration of MRI and PET images, PET and CT images were conducted by using the MATLAB-based program COMKAT (Compartmental Model Kinetic Analysis Tool). […] After creating uniform images from the PET and MRI images, VOI (Volume of interest) and ROI (Region of interest) were defined and used to measure the radioactivity concentration in the corpus callosums of both hypomyelinated and wild type mice. […]
The radioactivity was decay-corrected and normalized by the body weight of the mice and the amount of [^11C] […]

myelin sheaths = assay: In vitro fluorescent tissue staining of mouse brain sections; assay type: binding; settings: compared with MBP antibody
[2] = test system: LPC induced demyelination lesion; assay: CNP staining of rat brain sections after imaging in the focal demyelination model; assay type: binding; settings: LPC-rats versus saline-rats, compared with Black-Gold II
Description: Focal demyelination of adult rat brain. Sprague Dawley female rats (Harlan Laboratory, Indianapolis, Ind.), 12 weeks of age, were used for this study. Animal surgery and care was performed in accordance with the Institutional Animal Care and Use Committee of Case Western Reserve University Animals were anesthetized using a mixture of ketamine hydrochloride (64.2 mg/kg), xylazine hydrochloride (12.9 mg/kg), and acepromazine (12.9 mg/kg) and positioned in a stereotaxic frame (Stoelting). […]
Fresh frozen section: Mice or rats were deeply anesthetized with isoflurane and perfused via the ascending aorta with PBS followed by 4% paraformaldehyde in PBS. […] Tissue from the midline of the brain containing the whole corpus callosum was selected for staining Stained sections were covered with fluorescence mounting medium (Vectashield; Vector Laboratories, Burlingame, Calif.) and stored at 4° C. for future analysis.
Fresh frozen sections with 20 μm thickness were incubated in 0.1% Triton-100 in 1×PBS for 10 min, which was followed by incubation in a solution of CNP (1 mM) in 1% DMSO/1×PBS for 30 min at room temperature. The fresh frozen sections were then washed three times for 5 min each with 1×PBS before cover-slipping with fluorescence mounting medium (Vectashield, Vector laboratories). […]

myelin [3] = assay: In vivo NIRF imaging in shiverer mouse model; parameters: species or system shiverer mice and wild-type mice; settings: for fluorescent intensities in the brain, shiverer versus wild-type mice / time of peak fluorescent signal in shiverer mice / average radiance in wild-type mice relative to shiverer mice: 0.1 mg/kg i.v.; for time of peak fluorescent signal in shiverer mice: brain; for average radiance in wild-type mice relative to shiverer mice: at 30 minutes, after deducting vehicle signals
Description: We then evaluated the pharmacokinetic profiles of CNIR in 3-month old female shiverer mice (n=3) and age-matched wild-type mice (n=2). The in vivo NIR imaging was conducted using the same dosage as in the hypermyelinated mouse model. The fluorescent signals were recorded at 2, 4, 6, 8, 10, 15, 20, 25, 30, 40, 50, 60, 70, 80, 90, 100, 110 and 120 min after i.v. injection of CNIR and the vehicle (0.05% DMSO/PBS (V/V)).

MBP = assay: CNP staining followed by MBP antibody staining in the same brain tissue sections; assay type: binding, mouse; settings: cerebellum, frontal cortex, caudate putamen; CNP 1 mM
Description: After incubation with 3% normal goat serum in 1×PBS for 60 min, the fresh frozen sections were immunostained overnight at 4° C. with purified SMI99 mouse monoclonal anti-MBP (Covance, Inc. Princeton, N.J.) 1:500 dilution in 3% normal goat serum in 1×PBS, followed by one hour incubation at room temperature with Fluorescein (FITC) AffiniPure Goat Anti-Mouse IgG (H=L) (Jackson ImmunoResearch Laboratories, Inc. West Grove, Pa.) 1:500 dilution, then rinsed in 1×PBS (2×5′). The stained sections were covered with fluorescence mounting medium (Vectashield, Vector laboratories). Images of the stained mouse brain sections were acquired on a Leica DM5000 inverted microscope (L5 filter, BP 527/30).
Fresh frozen sections with 20 μm thickness were incubated in 0.1% Triton-100 in 1×PBS for 10 min, which was followed by incubation in a solution of CNP (1 mM) in 1% DMSO/1×PBS for 30 min at room temperature. The fresh frozen sections were then washed three times for 5 min each with 1×PBS before cover-slipping with fluorescence mounting medium (Vectashield, Vector laboratories). Images of the stained mouse brain sections were acquired on a Leica DMI5000 inverted microscope (Y5 filter, BP 700/75).
To determine the exact binding sites of CNP, we compared both CNP and MBP staining conducted in the same brain tissue sections. […]

myelin [4] = assay: In vivo NIRF imaging in hypermyelinated mouse model; parameters: species or system Plp-Akt-DD mice and wild-type mice; settings: 0.1 mg/kg i.v.
Description: The in vivo Near-infrared fluorescence imaging was carried out using Xenogen IVIS Imaging System 200, (Caliper Life Science, Inc., Hopkinton, Mass.). To avoid the influence of the autofluorescence and light scattering due to the fur, all the mice were shaved before experiment. After the i.v. injection of CNIR 0.1 mg/kg, the mouse was anesthetized utilizing isoflurane gas, the mouse was positioned on the center of the stage (working temperature 20-40° C.). The Near-infrared images were acquired by Back-thinned, back-illuminated grade 1 CCD, which is thermoelectrically cooled to −90° C. ensuring low dark current and low noise. The fluorescent filter set for excitation was 705-780 nm, for emission was 810-885 nm. The experiments were controlled with Living Image 3.1 (Caliper Life Science. Inc., Hopkinton, Mass.). Lens: f/2. Field of view: 6.5 cm×6.5 cm. Imaging Pixels: 2048×2048. Exposure time: 0.5 s for all the images. The near-infrared images were evaluated by Living Image 3.1 (Caliper Life Science. Inc., Hopkinton, Mass.). All the images used photon as the unit for the quantification, and the images were shown as overlaid photograph with fluorescence. Statistical analysis was performed using two-tailed t-test with GraphPad Prism 5, (GraphPad Software, Inc., La Jolla, Calif.). CNIR (0.1 mg/kg) and vehicle (0.05% DMSO/PBS (V/V)) was first administered to the hypermyelinated mouse model through intravenous injected in the tail vein. The fluorescence signals were recorded at 2, 4, 6, 8, 10, 15, 20, 25, 30, 40, 50, 60, 70, 80, 90, 100, 110 and 120 min post injection. To exclude the influence of autofluorescence from the mouse tissues and impact from the solution, the vehicle (0.05% DMSO/PBS (V/V)) also injected and fluorescence was recorded at 2, 4, 6, 8, 10, 15, 20, 25, 30, 40, 50, 60, 70, 80, 90, 100, 110 and 120 min to compare with the CNIR solution (images not shown). […]

[5] = Fluorescent excitation and emission spectra; assay type: physicochemical; settings: 100 nM in DMSO
Description: The fluorescent excitation and emission spectrum is recorded using Varian fluorescent spectroscopy at the concentration of […] in DMSO.
The excitation and emission spectra of CNP were recorded using Cary Eclipse Fluorescence Spectrophotometers (Varian, Inc.; Palo Alto, Calif.) at 25° C. in DMSO, at a concentration of 100 nM. The excitation and emission slits were 5 nm, the scan rate was 600 nm/min, and the data interval was 1 nm.

[6] = Brain permeability by co-registration of fluorescent and X-ray images; assay type: in vivo; settings: 0.1 mg/kg i.v., 20 minutes post injection, wild-type mice
Description: The fur of the mouse was shaved to avoid the problem of autofluorescence. 20 minutes after the i.v. injection of CNIR 0.1 mg/kg, the mouse was anesthetized utilizing isoflurane gas. The mouse was positioned on the center of the platen and imaged via fluorescence (ex 760 em 790) and X-ray. Vertical Resolution: 885 ppi, horizontal Resolution: 885 ppi. To determine the brain permeability of CNIR, we administered CNIR to wild-type mice through intravenous injection in tail vein. At 20 minutes post injection of CNIR (0.1 mg/kg), both X-ray and fluorescent images of the mouse brain were acquired using KODAK In-Vivo Multispectral System FX (FIG. 3). Co-registration of high quality X-ray image and fluorescent image confirmed that the strong fluorescence was indeed emitted from inside the brain.

[7] = corpus callosum, 0-60 min microPET

SMILES	uptake in control rat brain compared with demyelinated rat brain (myelin [1]; corpus callosum ROI, 60 min microPET scan)	average SUV in demyelinated region, lower than control myelinated region (myelin [1]; [7]) [%]	average SUV in demyelinated region, lower than remyelinated region (myelin [1]; [7]) [%]	localization in brain (myelin [1]; white matter versus gray matter)	labeling of myelin sheaths in wild-type mouse brain sections (myelin sheaths; 100 μM, fresh frozen sections)	labeling of myelin sheaths in wild-type and shiverer mouse brain sections (myelin sheaths; 1 mM, fresh frozen sections)	detection of demyelination lesion in brain sections [2]	fluorescent intensities in the brain, shiverer versus wild-type mice (myelin [3])	time of peak fluorescent signal in shiverer mice (myelin [3]) [min]	average radiance in wild-type mice relative to shiverer mice (myelin [3])	brain entry (myelin [3]; summary statement at the head of Example 1)	antibody staining of MBP after CNP staining of the same section (MBP)	labeling of myelin sheaths in wild-type mouse brain sections (myelin sheaths; 1 μM, free floating sections)	fluorescent radiance / average fluorescent intensity in Plp-Akt-DD mice compared with wild-type mice (myelin [4]; 2-120 min post injection)	clearance in wild-type control mice (myelin [4]; brain fluorescence)	clearance in hypermyelinated (Plp-Akt-DD) mice (myelin [4]; brain fluorescence, compared to WT)	maximal emission wavelength [5] [nm]	maximal excitation wavelength [5] [nm]	brain permeability [6]
COc1cccc(C[n+]2c(/C=C/C=C/C=C/C=C3/Sc4ccccc4N3Cc3cccc(O[11CH3])c3)sc3ccccc32)c1 [[^11C] CNP]	significantly higher	40	20	preferentially localizes in the myelin-rich white matter	–	–	–	–	–	–	–	–	–	–	–	–	–	–	–
COc1cccc(CN2\C(=C/C=C/C=C/C=C/c3sc4ccccc4[n+]3Cc3cccc(OC)c3)Sc3ccccc32)c1.[Br-] [CNP]	–	–	–	–	bind specifically to myelin sheaths	selectively labeled intact myelin sheaths	can detect the LPC induced demyelination lesion	significantly different	5	four fold greater	readily enters the brain	significantly blocked	–	–	–	–	–	–	–
CCN1\C(=C/C=C/C=C/C=C/c2sc3ccccc3[n+]2CC)Sc2ccccc21.[I-] [CNIR, 3,3′Diethylthiatricarbocyanine iodide]	–	–	–	–	–	–	–	significant different	2	eightfold greater	–	–	selectively labeled intact myelin sheaths	much stronger; also recorded: higher	fast clearance	relatively slower clearance	797	782	can readily penetrate the intact blood-brain barrier
